Measurements reported in patent US9302999B2, “Substituted triazoles as herbicides” (E. I. DU PONT DE NEMOURS AND COMPANY, priority 2012, dated 2016).

Key:
Format in all cases: in vivo
[1] = system: pigweed (Amaranthus retroflexus); test: Test A pre-/postemergence: pigweed; details: for Pigweed plant response rating: Postemergence; for Plant response rating, Pigweed: Preemergence
Summary of the method: (§1)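 Pre: directed soil spray after planting in loam + sand. Post: same formulation (non-phytotoxic solvent + surfactant) on 1–2-leaf plants, 2–10 cm. Greenhouse ~10 d; visual injury 0–100 vs untreated.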

[2] = system: wheat (Triticum aestivum); test: Test A pre-/postemergence: wheat; details: for Wheat plant response rating: Postemergence; for Plant response rating, Wheat: Preemergence
Summary of the method: as §1

[3] = system: barnyardgrass (Echinochloa crus-galli); test: Test C flooded paddy test: barnyardgrass; details: scale 0 to 100 (0 no effect, 100 complete control)
Summary of the method: (§2)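 Greenhouse plants treated at the 2-leaf stage by dosing the flood water (3 cm depth, maintained) were compared with controls after 13 to 15 days and rated 0 to 100, where 100 means complete control; a dash marks no test result.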

[4] = system: foxtail, giant (giant foxtail, Setaria faberii); test: Test A pre-/postemergence: foxtail, giant; details: for Foxtail, Giant plant response rating: Postemergence; for Plant response rating, Foxtail, Giant: Preemergence
Summary of the method: as §1

[5] = system: sedge, umbrella (small-flower umbrella sedge, Cyperus difformis); test: Test C flooded paddy test: sedge, umbrella; details: scale 0 to 100 (0 no effect, 100 complete control)
Summary of the method: as §2

[6] = system: barnyardgrass (Echinochloa crus-galli); test: Test A pre-/postemergence: barnyardgrass; details: for Barnyardgrass plant response rating: Postemergence; for Plant response rating, Barnyardgrass: Preemergence
Summary of the method: as §1

rice (Oryza sativa) = test: Test C flooded paddy test: rice; details: scale 0 to 100 (0 no effect, 100 complete control)
Summary of the method: as §2

[7] = system: morningglory (Ipomoea spp.); test: Test A pre-/postemergence: morningglory; details: for Morningglory plant response rating: Postemergence; for Plant response rating, Morningglory: Preemergence
Summary of the method: as §1

corn (Zea mays) = test: Test A pre-/postemergence: corn; details: for Corn plant response rating: Postemergence; for Plant response rating, Corn: Preemergence
Summary of the method: as §1

[8] = system: velvetleaf (Abutilon theophrasti); test: Test A pre-/postemergence: velvetleaf; details: for Velvetleaf plant response rating: Postemergence; for Plant response rating, Velvetleaf: Preemergence
Summary of the method: as §1

[9] = system: ducksalad (Heteranthera limosa); test: Test C flooded paddy test: ducksalad; details: scale 0 to 100 (0 no effect, 100 complete control)
Summary of the method: as §2

[10] = system: crabgrass, large (large crabgrass, Digitaria sanguinalis); test: Test A pre-/postemergence: crabgrass, large; details: for Crabgrass, Large plant response rating: Postemergence; for Plant response rating, Crabgrass, Large: Preemergence
Summary of the method: as §1

[11] = 125 g ai/ha, 0 to 100 scale, 0 is no effect, 100 is complete control
[12] = 500 g ai/ha, visual rating on 0 to 100 scale (0 no effect, 100 complete control), approximately ten days
[13] = 125 g ai/ha, 0 to 100 scale (0 no effect, 100 complete control)
[14] = 500 g ai/ha, 0 to 100 scale, 0 is no effect, 100 is complete control
[15] = Flood (flooded paddy test), 62 g ai/ha, visual rating after 13 to 15 days
[16] = Flood (flooded paddy test), 125 g ai/ha, visual rating after 13 to 15 days
[17] = Flood (flooded paddy test), 250 g ai/ha, visual rating after 13 to 15 days

Cc1nn(-c2cccc([N+](=O)[O-])c2)nc1C(=O)c1cccc(C(F)(F)F)c1 [Compound 62]
0: Pigweed plant response rating [1, 11] | Plant response rating, Pigweed [1, 13] | Plant response rating, Pigweed [1, 14] | Wheat plant response rating [2, 11] | Wheat plant response rating [2, 12] | Plant response rating, Wheat [2, 13] | Plant response rating, Wheat [2, 14] | Plant response rating, Barnyardgrass [3, 15] | Plant response rating, Barnyardgrass [3, 16] | Plant response rating, Barnyardgrass [3, 17] | Plant response rating, Barnyardgrass ([3]; Flood, 31 g ai/ha) | Foxtail, Giant plant response rating [4, 11] | Foxtail, Giant plant response rating [4, 12] | Plant response rating, Foxtail, Giant [4, 13] | Plant response rating, Foxtail, Giant [4, 14] | Plant response rating, Sedge, Umbrella [5, 15] | Plant response rating, Sedge, Umbrella [5, 16] | Plant response rating, Sedge, Umbrella [5, 17] | Plant response rating, Sedge, Umbrella ([5]; Flood, 31 g ai/ha) | Barnyardgrass plant response rating [6, 11] | Plant response rating, Barnyardgrass [6, 13] | Plant response rating, Barnyardgrass [6, 14] | Plant response rating, Rice (rice (Oryza sativa); [15]) | Plant response rating, Rice (rice (Oryza sativa); [16]) | Plant response rating, Rice (rice (Oryza sativa); [17]) | Plant response rating, Rice (rice (Oryza sativa); Flood, 31 g ai/ha) | Morningglory plant response rating [7, 11] | Morningglory plant response rating [7, 12] | Plant response rating, Morningglory [7, 13] | Plant response rating, Morningglory [7, 14] | Corn plant response rating (corn (Zea mays); [11]) | Corn plant response rating (corn (Zea mays); [12]) | Plant response rating, Corn (corn (Zea mays); [13]) | Plant response rating, Corn (corn (Zea mays); [14]) | Velvetleaf plant response rating [8, 11] | Velvetleaf plant response rating [8, 12] | Plant response rating, Velvetleaf [8, 13] | Plant response rating, Velvetleaf [8, 14] | Plant response rating, Ducksalad [9, 15] | Plant response rating, Ducksalad [9, 16] | Plant response rating, Ducksalad [9, 17] | Plant response rating, Ducksalad ([9]; Flood, 31 g ai/ha) | Crabgrass, Large plant response rating [10, 11] | Crabgrass, Large plant response rating [10, 12] | Plant response rating, Crabgrass, Large [10, 13] | Plant response rating, Crabgrass, Large [10, 14]
10: Pigweed plant response rating [1, 12] | Barnyardgrass plant response rating [6, 12]

COc1nn(-c2ccc(C(F)(F)F)cc2)nc1C(=O)c1ccnc(C(F)(F)F)c1 [Compound 75]
90: Plant response rating, Foxtail, Giant [4, 14]
60: Pigweed plant response rating [1, 12]
50: Plant response rating, Foxtail, Giant [4, 13]
30: Pigweed plant response rating [1, 11] | Plant response rating, Pigweed [1, 13] | Morningglory plant response rating [7, 12]
40: Plant response rating, Pigweed [1, 14]
0: Wheat plant response rating [2, 11] | Wheat plant response rating [2, 12] | Plant response rating, Wheat [2, 13] | Plant response rating, Barnyardgrass [3, 15] | Plant response rating, Barnyardgrass [3, 16] | Plant response rating, Barnyardgrass [3, 17] | Plant response rating, Barnyardgrass ([3]; Flood, 31 g ai/ha) | Plant response rating, Sedge, Umbrella [5, 15] | Plant response rating, Sedge, Umbrella [5, 16] | Plant response rating, Sedge, Umbrella [5, 17] | Plant response rating, Sedge, Umbrella ([5]; Flood, 31 g ai/ha) | Barnyardgrass plant response rating [6, 11] | Plant response rating, Rice (rice (Oryza sativa); [15]) | Plant response rating, Rice (rice (Oryza sativa); [16]) | Plant response rating, Rice (rice (Oryza sativa); [17]) | Plant response rating, Rice (rice (Oryza sativa); Flood, 31 g ai/ha) | Morningglory plant response rating [7, 11] | Corn plant response rating (corn (Zea mays); [11]) | Plant response rating, Corn (corn (Zea mays); [13]) | Plant response rating, Corn (corn (Zea mays); [14]) | Plant response rating, Velvetleaf [8, 13] | Plant response rating, Velvetleaf [8, 14] | Plant response rating, Ducksalad [9, 15] | Plant response rating, Ducksalad [9, 16] | Plant response rating, Ducksalad [9, 17] | Plant response rating, Ducksalad ([9]; Flood, 31 g ai/ha)
10: Plant response rating, Wheat [2, 14] | Foxtail, Giant plant response rating [4, 11] | Barnyardgrass plant response rating [6, 12] | Plant response rating, Barnyardgrass [6, 13] | Corn plant response rating (corn (Zea mays); [12]) | Velvetleaf plant response rating [8, 11] | Velvetleaf plant response rating [8, 12] | Crabgrass, Large plant response rating [10, 11]
20: Foxtail, Giant plant response rating [4, 12] | Plant response rating, Barnyardgrass [6, 14] | Crabgrass, Large plant response rating [10, 12] | Plant response rating, Crabgrass, Large [10, 13]
70: Plant response rating, Crabgrass, Large [10, 14]
